Test results reported in the NIST ThermoML archive (doi:10.1021/je900830s).
± gives the expanded uncertainty stated by the source.

Conditions: 101.33 kPa, Liquid, Buoyancy - hydrostatic balance with magnetic suspension - one sinker

CCO [ethanol]
mass density (313.2 K): 768.9 ± 3.5 kg/m3 | mass density (338.2 K): 752.7 ± 1.7 kg/m3 | mass density (343.2 K): 732.4 ± 1.2 kg/m3
